Data reported in patent publication US20060019929A1, “Combination therapies employing platelet aggregation drugs” (priority 2004, published 2006).
“Also recorded” adds a separate entry of the source.

Tests used:
Format in all cases: in vivo
[1] = tested on: patients who underwent percutaneous coronary intervention (PCI); assay: Maximum periprocedural CK-MB in patients with adjunctive platelet aggregation inhibitor (study data of Example 1 re-examined); conditions: adjunctive ASA 82 or 325 mg, eptifibatide, or clopidogrel 75 or 300 mg
Protocol: Study end points and definitions: The primary objective of the study was to evaluate the feasibility of treatment with P5P as a cardioprotective agent in high-risk elective PCI. The primary end point of infarct size was evaluated by the trapezoidal rule (Press W H, Teukolsky S A, Vetterling W T, Flannery B P. Numerical Recipes. Cambridge, UK: Cambridge University Press, 1994:127-133) using serial CK-MB enzyme measures performed at baseline and every 6 hours for 24 hours beginning immediately before initiation of PCI. The occurrence of myocardial ischemia within 24 hours after PCI was assessed as a secondary end point using continuous 12-lead electrocardiographic monitoring (Northeast Monitoring, Boston, Mass.). […] Area under the curve ST-segment deviation was measured from the onset of the first to the last contrast injection. […]

[2] = tested on: patients who underwent percutaneous coronary intervention (PCI); assay: Periprocedural cardiac markers (serial CK-MB, troponin T) after high-risk elective PCI, P5P vs placebo
Source text: (§1) Methods—Study Overview: 60 patients who underwent percutaneous coronary intervention (PCI) at 4 centers were randomized in a 2:1 double-blinded fashion to treatment with P5P or placebo. Inclusion criteria required prior determination for non-urgent PCI of a single-vessel lesion(s) and identification of ≧1 of the following clinical characteristics determining high risk for procedural-related ischemic complications (Califf R M, Abdelmeguid A E, Kuntz R E, Popma J J, Davidson C J, Cohen E A, Kleiman N S, Mahaffey K W, Topol E J, Pepine C J, et al. Myonecrosis after revascularization procedures. J Am Coll Cardiol 1998; 31:241-251; The ESPRIT Investigators. Novel dosing regimen of eptifibatide in planned coronary stent implantation: a randomised, placebo-controlled trial. Lancet 2000; 356:2037-2044): presence of an acute coronary syndrome (chest pain within 48 hours of PCI), recent AMI (≦7 days), diminished epicardial blood flow, angiographic thrombus, ejection fraction ≦30%, or vein graft lesion. In addition to any general contraindication to the PCI procedure or standard concomitant therapies, major exclusion criteria were creatine kinase (CK-MB) elevation above the upper limit of normal immediately before PCI, electrocardiographic evidence of atrial fibrillation or left bundle branch block, or evidence of any clinically significant abnormal laboratory finding (transaminases, bilirubin, or alkaline phosphatase >1.5 times the upper limit of normal or serum creatinine >1.8 mg/dl). Patients with elevated troponin measurements were permitted in the study provided that the peak troponin value was reported >24 hours before scheduled PCI, with documentation of a decreasing value before revascularization. After providing informed consent, patients randomized to treatment with P5P were administered enteric-coated P5P as a 10 mg/kg oral dose ≧4 hours before PCI followed by 2 daily doses of 5 mg/kg orally for 14 days. Compliance and reasons for discontinued treatments were recorded for all patients.
(§2) Study end points and definitions: The primary objective of the study was to evaluate the feasibility of treatment with P5P as a cardioprotective agent in high-risk elective PCI. The primary end point of infarct size was evaluated by the trapezoidal rule (Press W H, Teukolsky S A, Vetterling W T, Flannery B P. Numerical Recipes. Cambridge, UK: Cambridge University Press, 1994:127-133) using serial CK-MB enzyme measures performed at baseline and every 6 hours for 24 hours beginning immediately before initiation of PCI. The occurrence of myocardial ischemia within 24 hours after PCI was assessed as a secondary end point using continuous 12-lead electrocardiographic monitoring (Northeast Monitoring, Boston, Mass.). Evidence of periprocedural ischemia was defined as ST-segment depression of >100 μV within a 60-minute period of PCI, lasting ≧1 minute and separated from other episodes by ≧1 minute. Area under the curve ST-segment deviation was measured from the onset of the first to the last contrast injection. All cardiac markers and ST-segment monitoring data were analyzed by core laboratories blinded to treatment assignment (University of Maryland School of Medicine, Baltimore, Md.; Duke Ischemia Monitoring Laboratory, Durham, N.C.). […]

[3] = tested on: patients who underwent percutaneous coronary intervention (PCI); assay: 24-h continuous 12-lead electrocardiographic ST monitoring after PCI
Protocol: Methods—Study Overview: 60 patients who underwent percutaneous coronary intervention (PCI) at 4 centers were randomized in a 2:1 double-blinded fashion to treatment with P5P or placebo. […] Compliance and reasons for discontinued treatments were recorded for all patients.
as §2, with “Evidence of periprocedural ischemia was defined as ST-segment depression of >100 μV within a 60-minute period of PCI, lasting ≧1 minute and separated from other episodes by ≧1 minute.” left out

[4] = tested on: patients who underwent percutaneous coronary intervention (PCI); assay: Procedural and angiographic results (investigator-reported)
Source text: as §1
Except for a higher incidence of reduced epicardial flow among control patients, baseline angiographic and procedural characteristics also appeared similar between treatment groups (Table 1). Administration of P5P or placebo occurred an average of 6.1 and 8.4 hours before PCI, respectively. Stent implantation was performed in 100% and 97.3% of the placebo and P5P treatment groups, respectively. Only 1 vein graft intervention was performed using distal embolic protection. Although the right coronary artery was most commonly treated in both groups, fewer patients treated with placebo underwent revascularization of a saphenous vein graft (Table 2). Procedural angiographic complications (e.g., major dissection, abrupt vessel closure) were infrequent (Table 2).

[5] = tested on: patients who underwent percutaneous coronary intervention (PCI); assay: Clinical safety (bleeding, transfusion, chemistries, coagulation, discontinuation)
Source text: as §1, §2

[6] = tested on: patients who underwent percutaneous coronary intervention (PCI); assay: 30-day composite and individual clinical event rates after PCI; conditions: 30 days
Source text: Methods—Study Overview: 60 patients who underwent percutaneous coronary intervention (PCI) at 4 centers were randomized in a 2:1 double-blinded fashion to treatment with P5P or placebo. Inclusion criteria required prior determination for non-urgent PCI of a single-vessel lesion(s) and identification of ≧1 of the following clinical characteristics determining high risk for procedural-related ischemic complications (Califf R M, Abdelmeguid A E, Kuntz R E, Popma J J, Davidson C J, Cohen E A, Kleiman N S, Mahaffey K W, Topol E J, Pepine C J, et al. Myonecrosis after revascularization procedures. J Am Coll Cardiol 1998; 31:241-251; The ESPRIT Investigators. Novel dosing regimen of eptifibatide in planned coronary stent implantation: a randomised, placebo-controlled trial. Lancet 2000; 356:2037-2044): presence of an acute coronary syndrome (chest pain within 48 hours of PCI), recent AMI (≦7 days), diminished epicardial blood flow, angiographic thrombus, ejection fraction ≦30%, or vein graft lesion. […] Compliance and reasons for discontinued treatments were recorded for all patients.
as §2, with “Evidence of periprocedural ischemia was defined as ST-segment depression of >100 μV within a 60-minute period of PCI, lasting ≧1 minute and separated from other episodes by ≧1 minute.” left out, “injection.” for “injection. All cardiac markers and ST-segment monitoring data were analyzed by core laboratories blinded to treatment assignment (University of Maryland School of Medicine, Baltimore, Md.; Duke Ischemia Monitoring Laboratory, Durham, N.C.).”

With eptifibatide [Eptifibatide + placebo] the “CK-MB max (mean)” value [1] was 3.40 ng/mL.
With Cc1ncc(COP(=O)(O)O)c(C=O)c1O [P5P, pyridoxal-5-phosphate] the “maximum / peak periprocedural CK-MB level versus placebo” value ([2]; P5P vs placebo) was “significantly lower; also recorded: significant decrease”, the “Time to peak CK-MB” value ([2]; median (interquartile range)) was 11.0 (0-18.0), 36 h and the “change in troponin T” value ([2]; median (interquartile range), baseline to within 24 h after PCI) was 0 (0-0.07), 36 ng/ml. For the same compound, the “Area under the curve CK-MB (periprocedural infarct size)” value ([2]; median (interquartile range), enteric-coated P5P 10 mg/kg oral ≧4 h before PCI, then 5 mg/kg twice daily 14 days, CK-MB every 6 h for 24 h) was 18.6 (10.2-34.5), 35 ng/ml, the “Peak CK-MB” value ([2]; median (interquartile range), periprocedural) was 1.1 (0.5-2.4), 39 ng/ml and the “Area under the curve ST deviation” value ([3]; median (interquartile range), 24-h continuous ST monitoring) was 1349 (951-2.263), 35 μV-min. The “Any post PCI ischemia” value ([3]; percent of patients, within 24 h after PCI) was 14.7-34%, the “TIMI flow final 0/1” value ([4]; after PCI, n = 37) was 0 number (percent) and the “TIMI flow final 2” value ([4]; after PCI, n = 37) was 0 number (percent). For the same compound, the “TIMI flow final 3” value ([4]; after PCI, n = 37) was 37 (100) number (percent), the Diameter stenosis final ([4]; median (interquartile range), after PCI) was 0 (0-0) % and the “Procedural complications: Abrupt closure” value ([4]; n = 37) was 0 number (percent). The “Procedural complications: Distal embolization” value ([4]; n = 37) was 0 number (percent), the “Procedural complications: Major dissection” value ([4]; n = 37) was 1 (3) number (percent) and the “Procedural complications: No reflow” value ([4]; n = 37) was 0 number (percent). The “Procedural complications: None” value ([4]; n = 37) was 35 (95) number (percent), the “Procedural complications: Side branch closure” value ([4]; n = 37) was 1 (3) number (percent) and the “Procedural complications: Thrombus formation” value ([4]; n = 37) was 0 number (percent). The “abnormalities of routine chemistries or coagulation studies versus placebo” value ([5]; at 7 and 30 days) was “no apparent differences”, the “safety issues related to treatment” value ([5]; human, in vivo) was “No safety issues” and the “need for blood product transfusion” value ([5]; p=0.26 vs placebo) was 2.5%. For the same compound, the major bleeding ([5]; p=0.27 vs placebo) was 2.8%, the “patients discontinued drug therapy before completion of the prescribed 2 weeks” value ([5]; p=0.77 vs placebo) was 30.8% and the 30-day deaths [6] was “no deaths”. For the same compound, the “30-day composite adverse event rate (death, nonfatal AMI, new and/or worsening heart failure, or recurrent ischemia)” value ([6]; p=1.0 vs placebo) was 17.9% and the “30-day nonfatal AMI” value ([6]; p=1.0 vs placebo) was 12.8%.
In the case of COC(=O)[C@H](c1ccccc1Cl)N1CCc2sccc2C1 [Clopidogrel + placebo, clopidogrel], the “CK-MB max (mean)” value [1] is reported as 3.41 ng/mL.
With CC(=O)Oc1ccccc1C(=O)O [ASA + placebo, acetylsalicylic acid] the “CK-MB max (mean)” value [1] was 3.41 ng/mL.
